Experiment [1] concerns MCF7. Kind of experiment: Cytotoxicity against human MCF7 cells assessed as inhibition of KSP-mediated cell cycle progression after 44 hrs by MTT assay. The class given is functional. Conditions: MCF7, 44 h. On the technique in general: Tetrazolium dyes change colour on reduction, which living cells bring about.
For experiment [2], the system named is DU-145. Kind of experiment: Cytotoxicity against human DU145 cells assessed as inhibition of KSP-mediated cell cycle progression after 44 hrs by MTT assay. Conditions: DU-145, 44 h. The experiment is classed as functional.
For experiment [3], the system named is DU-145. The experiment is described as follows: Nonspecific cytotoxicity against human DU145 cells after 44 hrs by MTT assay. The class given is functional. Conditions: DU-145, 44 h.
Experiment [4] concerns PC-3. The experiment is described as follows: Nonspecific cytotoxicity against human PC3 cells after 44 hrs by MTT assay. The class given is functional. The settings on record: PC-3, 44 h.
Experiment [5] concerns MCF7. Kind of experiment: Nonspecific cytotoxicity against human MCF7 cells after 44 hrs by MTT assay. The settings on record: MCF7, 44 h. The experiment is classed as functional.
In experiment [6] the test system is SK-OV-3. Kind of experiment: Nonspecific cytotoxicity against human SKOV3 cells after 44 hrs by MTT assay. The class given is functional. The settings on record: SK-OV-3, 44 h.
The test system of experiment [7] is PC-3. Kind of experiment: Cytotoxicity against human PC3 cells assessed as inhibition of KSP-mediated cell cycle progression after 44 hrs by MTT assay. The experiment is classed as functional. Conditions: PC-3, 44 h.
Experiment [8] relates to SK-OV-3. Kind of experiment: Cytotoxicity against human SKOV3 cells assessed as inhibition of KSP-mediated cell cycle progression after 44 hrs by MTT assay. The class given is functional. The settings on record: SK-OV-3, 44 h.
Experiment [9] relates to SK-OV-3. The experiment is described as follows: Cell cycle arrest in human SKOV3 cells assessed as monoaster phenotype at 100 nM after 22 hrs by confocal microscopic analysis. The class given is functional, cell-based.
Experiment [10] deals with T1, Kinesin-1 heavy chain (Homo sapiens) (UniProt P33176).
T1 sequence (whole entry): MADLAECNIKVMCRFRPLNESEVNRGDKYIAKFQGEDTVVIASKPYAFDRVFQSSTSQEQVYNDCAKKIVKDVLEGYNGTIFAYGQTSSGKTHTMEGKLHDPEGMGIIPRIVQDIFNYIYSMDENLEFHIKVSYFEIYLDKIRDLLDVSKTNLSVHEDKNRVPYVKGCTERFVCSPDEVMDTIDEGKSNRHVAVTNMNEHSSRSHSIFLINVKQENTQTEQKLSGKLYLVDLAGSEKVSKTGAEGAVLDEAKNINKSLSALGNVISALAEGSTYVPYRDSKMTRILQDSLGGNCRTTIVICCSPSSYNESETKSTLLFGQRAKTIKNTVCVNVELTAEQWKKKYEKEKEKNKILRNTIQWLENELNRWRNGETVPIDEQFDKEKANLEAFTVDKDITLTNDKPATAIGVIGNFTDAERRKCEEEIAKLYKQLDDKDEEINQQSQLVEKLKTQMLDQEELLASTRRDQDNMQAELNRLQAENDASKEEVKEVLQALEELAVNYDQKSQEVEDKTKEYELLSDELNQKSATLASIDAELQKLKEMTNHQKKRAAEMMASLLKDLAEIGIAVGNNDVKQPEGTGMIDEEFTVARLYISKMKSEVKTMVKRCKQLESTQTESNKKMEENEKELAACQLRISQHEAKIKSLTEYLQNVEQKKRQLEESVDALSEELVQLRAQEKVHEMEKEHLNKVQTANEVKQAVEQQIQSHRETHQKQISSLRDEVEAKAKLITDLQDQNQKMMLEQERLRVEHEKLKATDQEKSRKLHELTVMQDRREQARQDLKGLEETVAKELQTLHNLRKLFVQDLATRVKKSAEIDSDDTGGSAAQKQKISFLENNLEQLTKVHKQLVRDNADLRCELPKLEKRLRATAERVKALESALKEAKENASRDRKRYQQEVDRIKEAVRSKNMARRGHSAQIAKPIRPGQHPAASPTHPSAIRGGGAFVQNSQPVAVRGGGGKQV
Kind of experiment: Inhibition of KNH (unknown origin)-mediated ATP hydrolysis assessed as residual activity at 10 uM after 10 to 20 mins by spectrophotometric analysis.

Experiment [11] addresses T2, Kinesin-like protein KIFC3 (Homo sapiens) (UniProt Q9BVG8).
T2 sequence (whole entry): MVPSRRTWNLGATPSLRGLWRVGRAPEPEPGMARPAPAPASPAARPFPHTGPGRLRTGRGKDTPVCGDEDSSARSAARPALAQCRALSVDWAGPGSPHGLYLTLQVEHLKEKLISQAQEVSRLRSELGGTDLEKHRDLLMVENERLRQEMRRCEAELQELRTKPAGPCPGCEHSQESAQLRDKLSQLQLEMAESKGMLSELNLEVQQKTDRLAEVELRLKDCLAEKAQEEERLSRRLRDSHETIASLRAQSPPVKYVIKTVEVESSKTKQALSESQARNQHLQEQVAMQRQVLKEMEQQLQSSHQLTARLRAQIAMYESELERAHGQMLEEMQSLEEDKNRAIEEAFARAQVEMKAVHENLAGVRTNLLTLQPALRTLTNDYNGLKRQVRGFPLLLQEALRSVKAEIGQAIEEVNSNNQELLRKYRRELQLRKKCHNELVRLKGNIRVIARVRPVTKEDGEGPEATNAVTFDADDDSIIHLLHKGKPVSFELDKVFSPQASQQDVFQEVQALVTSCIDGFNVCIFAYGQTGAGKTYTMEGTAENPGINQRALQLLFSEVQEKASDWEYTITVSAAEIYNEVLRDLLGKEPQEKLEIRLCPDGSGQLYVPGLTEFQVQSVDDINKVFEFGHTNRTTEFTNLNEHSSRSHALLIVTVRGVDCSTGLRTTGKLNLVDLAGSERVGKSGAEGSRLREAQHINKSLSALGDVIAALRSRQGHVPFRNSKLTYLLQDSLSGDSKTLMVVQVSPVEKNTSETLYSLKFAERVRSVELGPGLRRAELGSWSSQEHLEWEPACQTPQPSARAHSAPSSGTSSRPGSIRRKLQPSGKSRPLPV
The experiment is described as follows: Inhibition of KIFC3 (unknown origin)-mediated ATP hydrolysis assessed as residual activity at 10 uM after 10 to 20 mins by spectrophotometric analysis.

Experiment [12] has as its target Centromere-associated protein E (Homo sapiens) (UniProt Q02224). The experiment is described as follows: Inhibition of CENP-E (unknown origin)-mediated ATP hydrolysis assessed as residual activity at 10 uM after 10 to 20 mins by spectrophotometric analysis.
The target in experiment [13] is T3, Kinesin-like protein KIF2C (Homo sapiens) (UniProt Q99661).
T3 sequence (whole entry): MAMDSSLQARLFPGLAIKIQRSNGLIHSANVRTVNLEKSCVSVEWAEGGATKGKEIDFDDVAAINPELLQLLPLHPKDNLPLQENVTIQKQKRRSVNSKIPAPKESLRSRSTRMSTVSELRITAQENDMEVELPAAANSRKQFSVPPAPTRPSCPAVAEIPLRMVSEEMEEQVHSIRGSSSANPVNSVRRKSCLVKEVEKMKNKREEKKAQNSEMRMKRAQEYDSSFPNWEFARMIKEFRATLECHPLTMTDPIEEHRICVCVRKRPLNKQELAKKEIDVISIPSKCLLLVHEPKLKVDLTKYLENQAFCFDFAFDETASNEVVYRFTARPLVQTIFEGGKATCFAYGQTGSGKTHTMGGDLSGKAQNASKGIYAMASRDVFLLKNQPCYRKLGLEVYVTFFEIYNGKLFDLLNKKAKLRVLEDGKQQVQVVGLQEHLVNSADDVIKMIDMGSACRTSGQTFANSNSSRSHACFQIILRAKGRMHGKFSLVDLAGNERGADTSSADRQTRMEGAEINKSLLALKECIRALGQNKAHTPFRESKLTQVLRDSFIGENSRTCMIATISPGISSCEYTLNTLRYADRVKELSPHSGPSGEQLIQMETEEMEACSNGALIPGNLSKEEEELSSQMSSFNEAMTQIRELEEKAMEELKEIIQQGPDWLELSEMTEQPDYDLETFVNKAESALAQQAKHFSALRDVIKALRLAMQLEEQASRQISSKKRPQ
Kind of experiment: Inhibition of MCAK (unknown origin)-mediated ATP hydrolysis assessed as residual activity at 10 uM after 10 to 20 mins by spectrophotometric analysis.

GI50 and Activity data for four compounds are collected here from ChEMBL document CHEMBL2321780, “Fluorinated quinazolinones as potential radiotracers for imaging kinesin spindle protein expression” (2013).

Molecules are shown by their SMILES. Activity calls are given as the source filed them. The rule behind the calls is not given here.

As usually defined, the GI50 is the concentration at which growth is held to half of that of the control.

Sequence of Centromere-associated protein E (Homo sapiens) (Q02224 whole entry): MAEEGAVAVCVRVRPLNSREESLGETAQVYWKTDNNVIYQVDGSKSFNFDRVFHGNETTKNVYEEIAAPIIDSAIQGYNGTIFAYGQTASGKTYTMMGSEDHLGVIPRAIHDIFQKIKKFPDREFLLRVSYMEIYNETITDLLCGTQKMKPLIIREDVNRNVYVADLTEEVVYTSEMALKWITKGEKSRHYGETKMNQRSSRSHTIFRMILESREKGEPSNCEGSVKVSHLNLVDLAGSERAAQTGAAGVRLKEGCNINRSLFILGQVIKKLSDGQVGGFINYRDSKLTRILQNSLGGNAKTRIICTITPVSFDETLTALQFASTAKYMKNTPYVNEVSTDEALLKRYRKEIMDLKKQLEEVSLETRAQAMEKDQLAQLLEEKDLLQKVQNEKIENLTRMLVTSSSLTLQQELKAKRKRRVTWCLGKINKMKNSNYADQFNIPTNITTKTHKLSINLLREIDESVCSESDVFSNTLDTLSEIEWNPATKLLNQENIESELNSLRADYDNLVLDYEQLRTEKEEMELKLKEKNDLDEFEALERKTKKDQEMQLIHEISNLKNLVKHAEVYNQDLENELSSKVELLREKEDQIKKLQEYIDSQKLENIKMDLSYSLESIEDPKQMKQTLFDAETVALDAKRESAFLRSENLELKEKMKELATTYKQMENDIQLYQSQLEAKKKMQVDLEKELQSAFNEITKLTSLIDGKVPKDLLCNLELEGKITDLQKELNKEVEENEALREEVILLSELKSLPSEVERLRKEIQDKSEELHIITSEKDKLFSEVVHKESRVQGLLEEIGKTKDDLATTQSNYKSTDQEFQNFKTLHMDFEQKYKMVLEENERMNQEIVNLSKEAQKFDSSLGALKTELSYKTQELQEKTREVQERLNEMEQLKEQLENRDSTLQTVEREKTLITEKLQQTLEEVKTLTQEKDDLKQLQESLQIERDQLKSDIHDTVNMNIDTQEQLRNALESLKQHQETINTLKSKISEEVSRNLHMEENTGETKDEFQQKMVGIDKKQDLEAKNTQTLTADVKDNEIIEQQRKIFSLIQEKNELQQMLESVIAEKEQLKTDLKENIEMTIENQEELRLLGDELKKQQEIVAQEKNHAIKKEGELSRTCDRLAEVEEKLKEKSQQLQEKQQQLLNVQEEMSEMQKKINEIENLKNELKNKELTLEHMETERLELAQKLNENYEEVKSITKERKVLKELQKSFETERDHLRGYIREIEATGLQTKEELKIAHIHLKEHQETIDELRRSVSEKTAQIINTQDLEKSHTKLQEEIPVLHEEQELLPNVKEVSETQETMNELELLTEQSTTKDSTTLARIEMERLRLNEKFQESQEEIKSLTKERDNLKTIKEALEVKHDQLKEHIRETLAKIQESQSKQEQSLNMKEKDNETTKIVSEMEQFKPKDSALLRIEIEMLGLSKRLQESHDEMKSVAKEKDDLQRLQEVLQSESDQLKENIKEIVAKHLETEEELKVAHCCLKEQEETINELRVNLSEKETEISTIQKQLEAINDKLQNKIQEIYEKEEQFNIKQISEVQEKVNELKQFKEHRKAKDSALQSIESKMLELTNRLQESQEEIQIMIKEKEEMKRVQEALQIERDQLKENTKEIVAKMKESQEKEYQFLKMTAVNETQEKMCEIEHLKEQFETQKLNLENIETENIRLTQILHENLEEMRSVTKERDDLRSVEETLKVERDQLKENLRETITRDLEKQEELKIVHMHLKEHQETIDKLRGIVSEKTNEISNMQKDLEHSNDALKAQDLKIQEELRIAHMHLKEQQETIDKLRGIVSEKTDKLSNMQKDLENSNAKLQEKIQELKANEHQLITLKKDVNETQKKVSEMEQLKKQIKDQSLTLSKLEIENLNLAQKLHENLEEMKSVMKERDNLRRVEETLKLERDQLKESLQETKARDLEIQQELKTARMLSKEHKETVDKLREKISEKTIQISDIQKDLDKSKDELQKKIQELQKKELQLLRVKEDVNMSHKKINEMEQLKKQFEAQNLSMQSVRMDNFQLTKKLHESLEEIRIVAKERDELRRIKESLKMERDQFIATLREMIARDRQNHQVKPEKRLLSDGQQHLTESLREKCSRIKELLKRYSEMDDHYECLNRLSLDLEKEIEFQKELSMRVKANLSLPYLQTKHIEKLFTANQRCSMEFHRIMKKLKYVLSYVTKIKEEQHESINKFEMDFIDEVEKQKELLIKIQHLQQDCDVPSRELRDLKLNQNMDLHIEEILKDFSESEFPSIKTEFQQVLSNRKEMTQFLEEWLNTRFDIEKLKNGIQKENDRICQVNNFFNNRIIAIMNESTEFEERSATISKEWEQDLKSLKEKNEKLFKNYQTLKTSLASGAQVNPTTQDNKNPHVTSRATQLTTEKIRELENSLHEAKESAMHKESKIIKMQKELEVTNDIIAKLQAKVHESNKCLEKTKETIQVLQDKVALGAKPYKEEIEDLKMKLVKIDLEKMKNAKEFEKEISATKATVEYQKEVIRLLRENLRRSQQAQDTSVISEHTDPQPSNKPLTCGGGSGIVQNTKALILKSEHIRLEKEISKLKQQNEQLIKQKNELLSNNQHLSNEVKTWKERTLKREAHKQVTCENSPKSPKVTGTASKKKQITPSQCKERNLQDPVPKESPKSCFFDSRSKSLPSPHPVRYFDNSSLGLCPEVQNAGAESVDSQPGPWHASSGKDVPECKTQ

In the case of `CC(C)C(c1nc2cc(Cl)ccc2c(=O)n1Cc1ccccc1)N(CCCN)C(=O)c1ccc(F)cc1` (racemic), the GI50 came out at 4000 nM in the experiment on MCF7 [1]; 1100 nM with DU-145 [2]; 3100 nM in the experiment on DU-145 [3]; 6300 nM with PC-3 [4]; 2700 nM in the experiment on MCF7 [5]; 4300 nM in the experiment on SK-OV-3 [6]. For the same compound, the GI50 in the experiment on PC-3 [7] worked out at 1100 nM; with SK-OV-3 [8] it was 2700 nM.
With `CC(C)[C@H](c1nc2cc(Cl)ccc2c(=O)n1Cc1ccccc1)N(CCCN)C(=O)c1cccc(F)c1`, in the experiment on SK-OV-3 [9], the result was Active.
On to `CC(C)C(c1nc2cc(Cl)ccc2c(=O)n1Cc1ccccc1)N(CCCN)C(=O)c1ccccc1F` (racemic), for which the GI50 in the experiment with MCF7 [1] came out at 17.7 nM; with DU-145 [2] it was 48.5 nM; with PC-3 [4] it was 350 nM; in the experiment on MCF7 [5], 1900 nM; in the experiment with SK-OV-3 [6], 3100 nM; in the experiment on PC-3 [7], 1.9 nM. Besides, in the experiment on SK-OV-3 [8], the GI50 was 35.6 nM.
As to `CCOC(=O)C1=C(C)NC(=S)N[C@@H]1c1cccc(O)c1`, the Activity came to 98.5% in experiment [10], 98.3% in [11], 97.7% in experiment [12] and 97% in [13].
